The record followed here is patent US12304899B2, “Factor XI activation inhibitors” (Merck Sharp & Dohme LLC, priority 2019, dated 2025).

In the test the target is T1, Human coagulation factor (F)XI (Homo sapiens, UniProt P03951).
T1 construct: purchased Haematologic Technologies Inc. (FXI); Enzyme Research Laboratories (FXIIa) HCXI-150 (FXI); HFXIIa (FXIIa)
The test can be described thus: Inhibition of FXIIa mediated activation of FXI (activation of human Factor XI to XIa by human Factor α-XIIa). The conditions noted are these: human FXI pre-incubated with compound 30 min at 22° C., activation by human FXIIa 60 min, z-GPR-AFC substrate fluorescence, 4 parameter logistic fit; read-out: Inhibition of FXIIa meditated activation of FXI. Format: biochemical. How it is done: Inhibition of FXIIa Mediated Activation of FXI
Activation of Human Factor XI to XIa by Human Factor α-XIIa
The assay was performed in 50 mM HEPES, 150 mM NaCl, 5 mM CaCl2, 0.1% PEG-8000, pH 7.4 buffer in black, flat-bottom, polystyrene microplates (Corning, Cat #3573). Serial dilutions (10-point, 3.333-fold) of the test compounds delivered as 10 mM DMSO stocks were prepared in the Labcyte Echo-qualified PP 384 well microplates (Labcyte, Cat #P-05525). Human coagulation factor (F)XI (Haematologic Technologies Inc., Cat #HCXI-150, concentration 46 nM, 19.5 uL) was pre-incubated with 0.5 uL of the test compounds for 30 min at 22° C. The activation was initiated by addition of 10 uL of human coagulation factor (F)XIIa (Enzyme Research Laboratories, Cat #HFXIIa, concentration 30 nM) and the reaction proceeded for 60 min at 22° C., after which it was quenched by addition of a selective inhibitor of FXIIa (Compound 54 in International Patent Publication WO2018093695) concentration 600 uM in DMSO, 1 uL). 10 min after the quench, 29 uL of z-GPR-AFC substrate (Sigma, Cat #C0980-10 MG, concentration 200 uM) was added into each well and the detection reaction proceeded for 60 min at 22° C. Fluorescence at 405/510 nm was measured in end-point mode using an Envision plate-reader (Perkin Elmer). IDBS Activity Base XE (ABase) analysis using 4 parameter logistic fit was performed to determine Minimum, Maximum, EC50, and Slope Factor for each compound.

T1 sequence (P03951 19-625): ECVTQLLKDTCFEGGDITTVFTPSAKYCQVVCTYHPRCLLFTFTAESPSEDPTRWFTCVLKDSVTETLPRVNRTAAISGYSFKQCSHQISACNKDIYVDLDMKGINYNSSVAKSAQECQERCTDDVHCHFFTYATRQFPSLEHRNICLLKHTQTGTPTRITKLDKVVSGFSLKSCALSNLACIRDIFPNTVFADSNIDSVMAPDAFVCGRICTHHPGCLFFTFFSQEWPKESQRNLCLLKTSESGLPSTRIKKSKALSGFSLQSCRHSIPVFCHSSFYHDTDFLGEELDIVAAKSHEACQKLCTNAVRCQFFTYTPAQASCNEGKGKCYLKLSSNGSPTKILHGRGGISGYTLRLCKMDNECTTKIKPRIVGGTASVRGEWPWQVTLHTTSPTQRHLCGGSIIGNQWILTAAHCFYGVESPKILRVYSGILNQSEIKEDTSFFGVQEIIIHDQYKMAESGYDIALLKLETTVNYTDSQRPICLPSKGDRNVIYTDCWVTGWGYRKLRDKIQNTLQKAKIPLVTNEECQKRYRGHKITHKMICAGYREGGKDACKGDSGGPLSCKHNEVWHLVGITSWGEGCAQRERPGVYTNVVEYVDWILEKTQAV

As for `N#CC1(c2ccccc2)CCN(C(=O)c2cc(C(=O)N3CCCCC3)c3cc(OCc4nc5ccccc5s4)ccc3n2)CC1` [Example 49, 1-(6-(benzo[d]thiazol-2-yl-methoxy)-4-(piperidine-1-carbonyl)quinoline-2-carbonyl)-4-phenylpiperi-dine-4-carbonitrile], the EC50 was 15 nM. For the compound `Cn1c(COc2ccc3nc(C(=O)N4CCC(C#N)(c5ccccc5)CC4)cc(C(=O)N4CCCCC4)c3c2)nc2ccccc21` [Example 50, 1-(6-((1-methyl-1H-benzo[d]-imidazol-2-yl)methoxy)-4-(piperidine-1-carbonyl)quin-oline-2-carbonyl)-4-phenyl-piperidine-4-carbonitrile], the EC50 was 33.1 nM.

Regarding `N#CC1(c2ccccc2)CCN(C(=O)c2cc(C(=O)N3CCCCC3)c3cc(OCc4noc5ccccc45)ccc3n2)CC1` [Example 51, 1-(6-(benzo[d]isoxazol-3-yl-methoxy)-4-(piperidine-1-carbonyl)quinoline-2-carbon-yl)-4-phenylpiperidine-4-carbonitrile], the EC50 is 40.5 nM. `O=C(c1cc(C(=O)N2CCC(F)CC2)c2cc(OCc3nc4ccccc4s3)ccc2n1)N1CCC(n2cccn2)CC1` [Example 52, (4-(1H-pyrazol-1-yl)piperidin-1-yl)(6-(benzo[d]thiazol-2-ylmethoxy)-4-(4-fluoropiperidine-1-carbonyl)quinolin-2-yl)methanone]: the EC50 was 28.3 nM. As for `O=C(c1cc(C(=O)N2CCCC(F)(F)C2)c2cc(OCc3nc4ccccc4s3)ccc2n1)N1CCC(n2cccn2)CC1` [Example 53, (4-(1H-pyrazol-1-yl)piperidin-1-yl)(6-(benzo[d]thiazol-2-ylmethoxy)-4-(3,3-difluoro-piperidine-1-carbonyl)quin-olin-2-yl)methanone], the EC50 was 62.6 nM. Regarding `CN(C(=O)c1cc(C(=O)N2CCC(n3cccn3)CC2)nc2ccc(OCc3nc4ccccc4s3)cc12)C1CC1` [Example 54, 2-(4-(1H-pyrazol-1-yl)piperi-dine-1-carbonyl)-6-(benzo[d]-thiazol-2-ylmethoxy)-N-cyclo-propyl-N-methylquinoline-4-carboxamide], the EC50 turned out to be 71.5 nM. For the compound `CN(C(=O)c1cc(C(=O)N2CCC(n3cccn3)CC2)nc2ccc(OCc3nc4ccccc4s3)cc12)C1CCC1` [Example 55, 2-(4-(1H-pyrazol-1-yl)piperi-dine-1-carbonyl)-6-(benzo[d]-thiazol-2-ylmethoxy)-N-cyclo-butyl-N-methylquinoline-4-carboxamide], the EC50 is 366 nM. With `N#CC1(c2ccccn2)CCN(C(=O)c2cc(C(=O)N3CCCCC3)c3cc(OCc4nc5ccccc5s4)ccc3n2)CC1` [Example 57, 1-(6-(benzo[d]thiazol-2-yl-methoxy)-4-(piperidine-1-carbonyl)quinoline-2-car-bonyl)-4-(pyridin-2-yl)-piperidine-4-carbonitrile], the EC50 was 21.8 nM. As for `N#CC1(n2cccn2)CCN(C(=O)c2cc(C(=O)N3CCCCC3)c3cc(OCc4nc5ccccc5s4)ccc3n2)CC1` [Example 58, 1-(6-(benzo[d]thiazol-2-ylmethoxy)-4-(piperidine-1-carbonyl)quinoline-2-carbonyl)-4-(1H-pyrazol-1-yl)piperidine-4-carbonitrile], the EC50 was determined as 33.7 nM.

Turning to `NC(=O)C1(c2ccccc2)CCN(C(=O)c2cc(C(=O)N3CCCCC3)c3cc(OCc4nc5ccccc5s4)ccc3n2)CC1` [Example 59, 1-(6-(benzo[d]thiazol-2-yl-methoxy)-4-(piperidine-1-carbonyl)quinoline-2-car-bonyl)-4-phenylpiperidine-4-carboxamide], the EC50 was determined as 60 nM. As to `N#CC1(c2ccccc2)CCN(C(=O)c2cc(C(=O)N3CCCCC3)c3cc(OCc4nc5ccccc5s4)ccc3n2)CC1` [Example 60, 1-(6-(benzo[d]thiazol-2-yl-methoxy)-4-(piperidine-1-carbonyl)quinoline-2-car-onyl)-4-phenylpiperidine-4-carbonitrile], the EC50 was 37.7 nM. `C[C@]1(O)CCN(C(=O)c2cc(C(=O)N3CCCCC3)c3cc(OCc4nc5ccccc5s4)ccc3n2)C1` [Example 61, (S)(6-(benzo[d]thiazol-2-ylmethoxy)-2-(3-hydroxy-3-methylpyrrolidine-1-carbonyl)quinolin-4-yl)-(piperidin-1-yl)methanone]: the EC50 came to 131 nM. In the case of `O=C(c1cc(C(=O)N2CCCCC2)c2cc(OCc3nc4ccccc4s3)ccc2n1)N1CCC2(CC1)CC2(F)F` [Example 62, (6-(benzo[d]thiazol-2-yl-methoxy)-2-(1,1-difluoro-6-azaspiro[2.5]octane-6-carbonyl)quinolin-4-yl)-(piperidin-1-yl)methanone], the EC50 is 19.1 nM. Turning to `O=C(c1cc(C(=O)N2CCCCC2)c2cc(OCc3nc4ccccc4s3)ccc2n1)N1CCC(c2cc[nH]n2)CC1` [Example 63, (4-(1H-pyrazol-3-yl)piperi-din-1-yl)(6-(benzo[d]-thiazol-2-ylmethoxy)-4-(piperidine-1-carbonyl)-quinolin-2-yl)methanone], the EC50 was 31 nM. Consider `O=C(c1cc(C(=O)N2CCCCC2)c2cc(OCc3nc4ccccc4s3)ccc2n1)N1CCC(n2ccnn2)CC1` [Example 64, (4-(1H-1,2,3-triazol-1-yl)-piperidin-1-yl)(6-(benzo-[d]thiazol-2-ylmethoxy)-4-(piperidine-1-carbonyl)-quinolin-2-yl)methanone], for which the EC50 was 42.1 nM. For `O=C(c1cc(C(=O)N2CCCCC2)c2cc(OCc3nc4ccccc4s3)ccc2n1)N1CCN(CC(F)(F)F)CC1` [Example 65, (6-(benzo[d]thiazol-2-yl-methoxy)-2-(4-(2,2,2-trifluoroethyl)piperazine-1-carbonyl)quinolin-4-yl)-(piperidin-1-yl)methanone], the EC50 amounted to 19.1 nM. As for `CC(N1CCN(C(=O)c2cc(C(=O)N3CCCCC3)c3cc(OCc4nc5ccccc5s4)ccc3n2)CC1)C(F)(F)F` (stereo not shown) [Example 66, (6-(benzo[d]thiazol-2-yl-methoxy)-2-(4-(1,1,1-trifluoropropan-2-yl)-piperazine-1-carbonyl)-quinolin-4-yl)(piperidin-1-yl)methanone], the figure is 16.5 nM. Take `O=C(c1cc(C(=O)N2CCCCC2)c2cc(OCc3nc4ccccc4s3)ccc2n1)N1CCN(CC(F)F)CC1` [Example 67, (6-(benzo[d]thiazol-2-yl-methoxy)-2-(4-(2,2-difluoroethyl)piperazine-1-carbonyl)quinolin-4-yl)-(piperidin-1-yl)methanone]: the EC50 is 34.7 nM. As for `CS(=O)(=O)N1CCN(C(=O)c2cc(C(=O)N3CCCCC3)c3cc(OCc4nc5ccccc5s4)ccc3n2)CC1` [Example 68, (6-(benzo[d]thiazol-2-yl-methoxy)-2-(4-(methyl-sulfonyl)piperazine-1-carbonyl)quinolin-4-yl)-(piperidin-1-yl)methanone], the figure is 19.1 nM; as for `O=C(c1cc(C(=O)N2CCCCC2)c2cc(OCc3nc4ccccc4s3)ccc2n1)N1CCC(n2cc(F)cn2)CC1` [Example 69, (6-(benzo[d]thiazol-2-yl-methoxy)-2-(4-(4-fluoro-1H-pyrazol-1-yl)piperi-dine-1-carbonyl)quinolin-4-yl)(piperidin-1-yl) methanone], 45.9 nM; as for `O=C(c1cc(C(=O)N2CCCCC2)c2cc(OCc3nc4ccccc4s3)ccc2n1)N1CC[C@H]2OCCC[C@@H]2C1` [Example 70], 40.2 nM.

On to `O=C(c1cc(C(=O)N2CCCCC2)c2cc(OCc3nc4ccccc4s3)ccc2n1)N1CCCN(Cc2nccs2)CC1` [Example 71, 4-(6-(benzo[d]thiazol-2-yl-methoxy)-4-(piperidine-1-carbonyl)quinoline-2-car-bonyl)-1-(thiazol-2-yl-methyl)-1,4-diazepan-1-ium 2,2,2-trifluoroacetate], for which the EC50 was determined as 48.6 nM.

With `CC(=O)NC1CC2(CCN(C(=O)c3cc(C(=O)N4CCCCC4)c4cc(OCc5nc6ccccc6s5)ccc4n3)CC2)C1` [Example 73, N-(7-(6-(benzo[d]thiazol-2-ylmethoxy)-4-(piperi-dine-1-carbonyl)quinoline-2-carbonyl)-7-azaspiro-[3.5]nonan-2-yl)acetamide], the EC50 was 38.5 nM. On to `O=C(c1cc(C(=O)N2CCCCC2)c2cc(OCc3nc4ccccc4s3)ccc2n1)N1CCC(c2ncc[nH]2)CC1` [Example 74, (4-(1H-imidazol-2-yl)-piperidin-1-yl)(6-(benzo-[d]thiazol-2-ylmethoxy)-4-(piperidine-carbonyl)-quinolin-2-yl)methanone], for which the EC50 stood at 32.6 nM.

With `O=C(c1cc(C(=O)N2CCCCC2)c2cc(OCc3nc4ccccc4s3)c(F)cc2n1)N1CCC(n2cccn2)CC1` [Example 75, (4-(1H-pyrazol-1-yl)piperidin-1-yl)(6-(benzo[d]thiazol-2-ylmethoxy)-7-fluoro-4-(piperidine-1-carbonyl)quinolin-2-yl)methanone], the EC50 stood at 18.8 nM.
